{"source": "patent US9943471B2", "about": "“Beta-2-adrenergic receptor agonist for improving skin scar colour matching” (UNIVERSITY OF LEICESTER, priority 2013, dated 2018)", "key": {"[1]": {"system": "age spots", "details": "added topically, Chinese females with age spots; cited from earlier work"}, "[2]": {"system": "melanoma cells", "details": "cited from earlier work"}, "[3]": {"system": "βARs", "parameters": "dose or concentration left out as unconfirmed", "details": "cited from earlier work"}, "[4]": {"system": "full-thickness wounds, Red Duroc pig", "experiment": "Red Duroc pig wound scar study: scar area and wound area", "format": "in vivo", "parameters": "scar area reduction / scar area smaller than control wounds / wound area smaller than control (less swollen) / wound area larger than control (less contracted): concentration or dose not given beside the values", "description": "A porcine wound scar study was conducted in the Red Duroc pig. 4 rows of 5 (2×2 cm) full-thickness wounds were created, either side of the spine, on the shaved backs of 10 Red Durocs (FIGS. 1, 4). […] Two wounds per animal were biopsied (6 mm punch) at 7, 14, 21, 28 and 42 days post wounding. The remaining 10 wound scars per animal were photographed and harvested at day 56 post-wounding, giving a total of 5 wounds per position, 50 wounds in total for each group. The scar closest to the average scar area, at each position, for both control and sal-treated wounds are presented (FIG. 5b). […] Indeed, by day 28 and 42 post-wounding the scar area of the sal-treated wounds was already 34.1% and 37.7% smaller than control wounds (FIG. 6a; ***P<0.001). Wound area was also measured in early time points."}, "[5]": {"system": "melanocytes", "details": "cited from earlier work"}, "[6]": {"system": "full-thickness wounds, Red Duroc pig", "experiment": "Red Duroc pig wound scar study: scar scale scores", "format": "in vivo", "text": "Anatomically and physiologically, porcine skin is very similar to human skin [19]. Wounds in small mammal skin, which is untethered, heal primarily by wound contraction, whereas porcine and human skin wounds close primarily by wound re-epithelialisation. The Red Duroc pig is well established as a reproducible model of fibro proliferative and hypertrophic scar formation. Similar to human hypertrophic scars, Red Duroc pigs heal wounds with an excessive amount of collagen deposition and increased wound contraction. In addition, the wounds heal with hyperpigmentation at the wound margins creating hyperpigmented scars and the scars are raised, similar to human scars. […] A porcine wound scar study was conducted in the Red Duroc pig. 4 rows of 5 (2×2 cm) full-thickness wounds were created, either side of the spine, on the shaved backs of 10 Red Durocs (FIGS. 1, 4). […] Two wounds per animal were biopsied (6 mm punch) at 7, 14, 21, 28 and 42 days post wounding. The remaining 10 wound scars per animal were photographed and harvested at day 56 post-wounding, giving a total of 5 wounds per position, 50 wounds in total for each group. A number of scales have been developed to score the severity of human scars. The Vancouver scar scale (VSS), the Manchester scar scale (MSS) and the patient and observer scar assessment scale (POSAS). We developed our own scale to score the severity of the Red Duroc scars based on the VSS [7] and the MSS [8]. The patient and observer scar assessment scale (POSAS) could not be used as it requires patient involvement. The VSS measures four parameters: pigmentation, vascularity, pliability and height, while the MSS measures colour, contour, distortion and texture. Our scar scale was developed to score a number of scar characteristics including: pigmentation, colour match with surrounding tissue, skin sheen, pliability, texture and height contour."}, "[7]": {"details": "5 mM in Granugel, 500 μl per wound daily, day 56, vs control"}}, "note": "Like-named read-outs stand apart in the source and are kept apart here.", "data": [{"smiles": "C=CCCCCCCCCC(=O)N[C@@H](Cc1ccccc1)C(=O)O", "note": "[undecylenoyl phenylalanine]", "values": [{"measurement": "skin lightening", "setting": "[1]", "result": "skin lightening effect"}, {"measurement": "melanin production", "setting": "[2]", "result": "suppressed melanin production"}]}, {"smiles": "CC(C)(C)NCC(O)c1ccc(O)c(CO)c1", "note": "(stereo not drawn) [salbutamol]", "values": [{"measurement": "activation of βARs", "setting": "[3]", "result": "activate all βARs"}, {"measurement": "scar area reduction", "setting": "[4]; 56 days post wounding, vs control", "result": 47.1, "unit": "%"}, {"measurement": "wound area smaller than control (less swollen)", "setting": "[4]; after 7 days", "result": 11, "unit": "%"}, {"measurement": "wound area larger than control (less contracted)", "setting": "[4]; after 14 days", "result": 23, "unit": "%"}, {"measurement": "wound area vs control wounds", "setting": "[4]; by 28 days", "result": "slightly smaller"}, {"measurement": "scar area smaller than control wounds", "setting": "[4]; day 28 post-wounding", "result": 34.1, "unit": "%"}, {"measurement": "scar area smaller than control wounds", "setting": "[4]; day 42 post-wounding", "result": 37.7, "unit": "%"}, {"measurement": "re-epithelialisation rate vs control wounds", "setting": "[4]; early time points", "result": "No significant difference"}, {"measurement": "cAMP levels", "setting": "[5]; melanocytes, in association with increased melanogenesis", "result": "enhances cAMP levels"}, {"measurement": "improvement of colour match score", "setting": "[6]; [7]", "result": 44, "unit": "%"}, {"measurement": "improvement of height contour score", "setting": "[6]; [7]", "result": 34, "unit": "%"}, {"measurement": "improvement of pigmentation score", "setting": "[6]; [7]", "result": 48, "unit": "%"}, {"measurement": "improvement of pliability score", "setting": "[6]; [7]", "result": 22, "unit": "%"}, {"measurement": "improvement of sheen score", "setting": "[6]; [7]", "result": 53, "unit": "%"}, {"measurement": "improvement of texture score", "setting": "[6]; [7]", "result": 22, "unit": "%"}, {"measurement": "scar appearance vs control scars", "setting": "[6]; day 56 post-wounding, P<0.0001", "result": "less hyper-pigmented"}]}, {"smiles": "CNCC(O)c1ccc(O)c(O)c1", "note": "(stereo not drawn) [Adrenaline, adrenaline]", "values": [{"measurement": "melanin production / melanogenesis in melanocytes", "setting": "[5]", "result": "increased melanin production"}, {"measurement": "melanin production / melanogenesis in melanocytes", "setting": "[5]; listed as Epinephrine", "result": "increases melanin synthesis"}]}, {"smiles": "NC[C@H](O)c1ccc(O)c(O)c1", "note": "[noradrenaline]", "values": [{"measurement": "melanin production / melanogenesis in melanocytes", "setting": "[5]", "result": "no effect"}]}]}
